Molecules are shown by their SMILES.

The results in this text go back to US5179090A, “Condensed diazepinones and medicaments containing these compounds” (priority 1989, dated 1993).

Experiment [1] has as its target T1, muscarine receptors of the vestibule (Cavia porcellus, UniProt H0VRN8).
T1 construct: in the removed, spontaneously beating right vestibule; from tissue; host or cells: isolated spontaneously beating right atrium ('vestibule') of guinea pig
T1 sequence (H0VRN8 1-466): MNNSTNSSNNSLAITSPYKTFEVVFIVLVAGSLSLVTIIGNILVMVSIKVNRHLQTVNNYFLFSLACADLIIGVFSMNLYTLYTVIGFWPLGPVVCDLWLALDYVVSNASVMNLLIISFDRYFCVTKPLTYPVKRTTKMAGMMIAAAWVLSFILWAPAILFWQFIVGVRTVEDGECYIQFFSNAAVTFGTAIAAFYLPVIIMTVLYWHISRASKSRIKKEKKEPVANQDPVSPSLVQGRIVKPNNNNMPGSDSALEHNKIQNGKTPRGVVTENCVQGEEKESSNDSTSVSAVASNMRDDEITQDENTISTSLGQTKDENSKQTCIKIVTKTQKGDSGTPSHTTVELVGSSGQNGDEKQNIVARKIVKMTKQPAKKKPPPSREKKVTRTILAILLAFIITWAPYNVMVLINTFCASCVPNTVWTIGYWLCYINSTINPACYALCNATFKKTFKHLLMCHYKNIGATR
Put plainly: In vitro dissociation constant on spontaneously beating vestibule (heart), methacholine antagonism. The format is cell-based. To be noted: guinea pig spontaneously beating vestibule. On the procedure: (§1) Substances having anti-muscarine properties inhibit the effects of exogenically introduced agonists or of acetylcholine which is released from cholinergic nerve endings. A description of methods which are suitable for determining spasmolytically active anti-muscarine agents is given below.
(§2) Dissociation constants ([…]) were determined "in vitro" on the ileum and spontaneously beating vestibule of a guinea pig. The ileum was removed and incubated in an organ bath in Krebs- Henseleit solution. Contractions were induced by increasing concentrations of methacholine (M) such that complete concentration-activity graphs could be plotted. M was then washed out, the substance to be investigated was added and incubated for 30 minutes, and once again a concentration-activity graph was plotted using M.
The dissociation constant according to Arunlakshana and Schild (Brit. J. Pharmacol. 14; 48 (1959)) Was calculated from the dosage ratio (DR) which is the measure of the displacement of the concentration-activity graph.
M reduced the heart rate as a function of concentration in the removed, spontaneously beating right vestibule. This effect was cancelled again by adding an anti-muscarine agent. Dissociation constants for the muscarine receptors of the vestibule were obtained in the same manner as described above. The comparison of the dissociation constants determined in both tissues permitted the identification of selectively spasmolytically active substances.

Experiment [2] concerns muscarine receptors in the ileum. Put plainly: In vitro dissociation constant on ileum, methacholine antagonism. The class given is cell-based, guinea pig. To be noted: guinea pig. On the procedure:
as §1, §2
(§3) Dissociation constants for the muscarine receptors of the vestibule were obtained in the same manner as described above.

The target of experiment [3] is T2, muscarine receptors in the ileum (Cavia porcellus, UniProt H0W1Z3).
T2 construct: The ileum was removed and incubated in an organ bath; from tissue; host or cells: isolated ileum of guinea pig
The experiment is described as above. The class given is cell-based, guinea pig. To be noted: guinea pig ileum. On the procedure:
as §1, §2, §3

Experiment [4] addresses T3, M receptors of the bladder (Cavia porcellus, UniProt H0W1Z3).
T3 construct: the bladder was connected to a power transducer under a resting tension of 1 gram; from tissue; host or cells: urinary bladder of anaesthetised guinea pigs (in vivo)
Put plainly: Acetylcholine antagonism in anaesthetised guinea pigs: inhibition of increase in tone of the bladder. The class given is in vivo. To be noted: iv, 5 min, guinea pig, i.v., n=4-6, read-out: -log ED50 bladder (converted). The source says:
(§4) The methods used had the aim of confirming the selectivity of the anti-muscarine effect. Any substances which had been selected on the basis of "in vitro" investigations were investigated for
(§5) 1. Effect on M receptors of the bronchial tubes, the heart and the bladder of anaesthetised guinea pigs
(§6) Guinea pigs of both sexes (550-600 g body weight) were anaesthetised using urethane (1.4 g/kg intraperitoneally). A cannula was introduced into the augular vein to inject the active agents. 220 I.U./kg of heparin were injected intravenously. A cannula was introduced into the trachea; the animals were artificially respirated by means of a positive pressure pump (Braun-Melsungen) using oxygen-enriched air at a rate of 80 beats per minute. A branch of the tracheal cannula was connected to a water manometer 10 cm high. The respiration volume was set such that the maximum intratracheal pressure just reached the pressure of a 10 cm water column during respiration.
A small median abdominal incision was made and the bladder was connected to a power transducer under a resting tension of 1 gram.
(§7) The active substances to be tested were injected via the jugular vein, 5 minutes later the increase in tone of the bladder (in grams) the bronchial resistance (in %) and the decrease in heart rate (beats per minute) were measured after administration of acetylcholine (50 μg/kg intravenously and intraarterially). Dosage-dependency graphs were drawn by plotting the percentage inhibition of bronchoconstriction, bradycardia and the increase in tone of the bladder against the logarithm of the dosage (mole/kg) of the active agents to be investigated. The results are given as average values (n=4-6).

The next experiment relates to saliva secretion. Put plainly: Saliva secretion-inhibiting effect in the rat (pilocarpine-triggered). The format is in vivo. To be noted: iv, pilocarpine 2 mg/kg subcutaneous, 50% reduction of saliva volume, read-out: -log ED50 saliva secretion inhibition rat (converted). On the procedure:
as §4
2. saliva secretion-inhibiting effect in the rat, and
2. Saliva secretion-inhibitino effect in the rat
The secretion of saliva was triggered by subcutaneous administration of 2 mg/kg of pilocarpine. The saliva was absorbed using blotting paper, the surface taken up by it was determined planimetrically every 5 minutes. The dosage of the substance which reduced the volume of saliva by 50% was determined graphically.

A further experiment relates to guinea pig ileum. Briefly: In situ spasmolytic effect in guinea pigs (methacholine-induced ileum contractions). To be noted: i.v.; for ED50: Cavia porcellus, iv, 5 min, guinea pig, methacholine 20 μg/kg intraarterially, n=4 to 8, read-out: -log ED50 in situ spasmolysis guinea pig ileum (converted); for Ratio saliva secretion inhibition to spasmolytic activity: rat saliva secretion vs guinea pig ileum in situ. The format is in vivo.
Source text: as §4
3. in situ spasmolytic activity in the guinea pig.
3 In situ spasmolytic effect in guinea pigs
Male guinea pigs (500 to 600 g body weight) were anaesthetised using urethane (1.2 g/kg intraperitoneally);cannulae Were introduced into the trachea, jugular vein and the left carotid artery. The animals were artificially respirated by means of a positive pressure pump using oxygen-enriched air at a beat frequency of 80 per minute. A 3 to 4 cm abdominal incision was made and about 15 cm of a movable loop of the ileum was removed distally while maintaining the blood circulation. The proximal part was filled with a Krebs-Ringer solution and a pressure meter was introduced into the intestine using a Millar micro-tip catheter (PC-450, 5F). A glass tube was placed vertically in the abdomen and attached to the surrounding abdominal wall such that the animal served as its own organ bath when the glass tube was filled with Krebs-Ringer solution.
The glass tube was filled with Krebs-Ringer solution until the whole of the hypogastrium was immersed. The active agents to be tested were injected via the jugular vein; 5 minutes later contractions were produced by means of methacholine (20 μg/kg intraarterially). Dosage-activity graphs were obtained by plotting the percentage suppression of contractions produced by methacholine against the logarithm of dosage amount (mole/kg) of the active substance to be tested.
The results were given as average values (n=4 to 8) (see Table II).

The target in experiment [5] is T4, M receptors of the bronchial tubes (Cavia porcellus, UniProt H0W1Z3).
T4 construct: Guinea pigs of both sexes (550-600 g body weight) were anaesthetised using urethane; from tissue; host or cells: bronchi of anaesthetised guinea pigs (in vivo)
Put plainly: Acetylcholine antagonism in anaesthetised guinea pigs: inhibition of bronchoconstriction. The class given is in vivo, guinea pig. To be noted: iv, 5 min; guinea pig, i.v., acetylcholine antagonism, n=4-6; read-out: -log ED50 bronchial tubes (converted).
Source text: as §4
(§8) 1. selectivity of the bronchospasmolytic activity in the guinea pig,
as §5, §6
(§9) The values were recorded using an IFD recording apparatus. The trachea was clamped for a short time before the test to produce the maximum possible degree of bronchoconstriction for calibration. […] The heart rate was measured using a rate detector which is triggered by arterial pulse waves.
as §7

Experiment [6] concerns M receptors of the bronchial tubes. The experiment is described as above. The class given is in vivo, guinea pig. To be noted: for Ratio influence of bradycardia to bronchoconstriction: guinea pig, i.v., ratio heart (bradycardia) to bronchial tubes; for selectivity for smooth muscle: smooth muscle vs heart rate or saliva secretion.
Source text: as §4, §8, §5, §6, §9, §7

The target of experiment [7] is T5, M receptors of the heart (Cavia porcellus, UniProt H0VRN8).
T5 construct: from tissue; host or cells: heart of anaesthetised guinea pigs (in vivo)
T5 sequence (H0VRN8 1-466): T1 sequence (H0VRN8 1-466)
Briefly: Acetylcholine antagonism in anaesthetised guinea pigs: inhibition of bradycardia. The format is in vivo, guinea pig. To be noted: iv, 5 min; guinea pig, i.v., acetylcholine antagonism (bradycardia), n=4-6; read-out: -log ED50 heart (converted).
Source text: as §4, §5, §6, §9, §7

In experiment [8] the test system is M receptors of the heart. Described as above. To be noted: comparison, Tables I and III. The format is in vivo, guinea pig.
Source text: as §4, §5, §6, §9, §7

T3 sequence (H0W1Z3 1-590): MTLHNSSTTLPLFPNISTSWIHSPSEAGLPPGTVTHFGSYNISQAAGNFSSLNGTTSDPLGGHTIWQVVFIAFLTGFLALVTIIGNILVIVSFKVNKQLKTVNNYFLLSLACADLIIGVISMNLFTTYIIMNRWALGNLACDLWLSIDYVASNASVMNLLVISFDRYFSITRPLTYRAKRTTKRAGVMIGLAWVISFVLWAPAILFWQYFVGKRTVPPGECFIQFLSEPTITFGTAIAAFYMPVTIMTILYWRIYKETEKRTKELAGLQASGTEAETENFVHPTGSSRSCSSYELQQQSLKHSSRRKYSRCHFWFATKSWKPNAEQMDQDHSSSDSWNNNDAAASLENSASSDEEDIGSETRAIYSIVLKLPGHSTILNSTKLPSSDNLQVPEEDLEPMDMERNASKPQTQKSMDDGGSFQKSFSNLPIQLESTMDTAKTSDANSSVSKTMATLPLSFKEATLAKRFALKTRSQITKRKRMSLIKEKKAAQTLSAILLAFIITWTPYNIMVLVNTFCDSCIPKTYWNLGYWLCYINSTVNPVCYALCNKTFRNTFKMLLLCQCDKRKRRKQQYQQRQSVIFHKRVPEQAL
T4 sequence (H0W1Z3 1-590): as above
T2 sequence (H0W1Z3 1-590): as above

As to `CN1CCC2C1CCN2C(=O)N1c2ccccc2C(=O)Nc2cccnc21` (centres unmarked) [A], the Kb in experiment [1] is 209 nM; in experiment [3] it was 30.2 nM. Also, the “Selectivity KB heart to KB ileum” value in [2] is 6.9. Also, the ED50 in experiment [4] was 0.49 µmol/kg; in the experiment with saliva secretion, 0.2 µmol/kg; in the experiment on guinea pig ileum it was 0.117 µmol/kg; in [5] it was 0.049 µmol/kg; at M receptors of the heart [7], 1.05 µmol/kg. Also, the “Ratio saliva secretion inhibition to spasmolytic activity” value (“Ratio saliva secretion inhibition” for short) in the experiment on guinea pig ileum is recorded as 2. Further, the “Ratio influence of bradycardia to bronchoconstriction” value (from here on “Ratio influence of bradycardia”) in [6] is reported as 21. The “selectivity for smooth muscle” value in [6] is reported as “very marked smooth muscle selectivity”.

As to `CN1CCC2C1CCN2C(=O)N1c2ccccc2NC(=O)c2cccnc21` (centres unmarked) [B], the Kb came out at 145 nM in [1] and 60.3 nM in experiment [3]. The “Selectivity KB heart to KB ileum” value in experiment [2] is 2.4. Besides, the ED50 in experiment [4] was 0.813 µmol/kg; in experiment [5] it was 0.0447 µmol/kg; on M receptors of the heart [7], 1.95 µmol/kg. For the same molecule, in [6], the “Ratio influence of bradycardia” value amounted to 44. In [6], the “selectivity for smooth muscle” value was “very marked smooth muscle selectivity”.

Turning to `CN1CC2CN(C(=O)N3c4ccccc4C(=O)Nc4cccnc43)CC2C1` (centres unmarked) [C], the ED50 was 3.02 µmol/kg in [4]; 2.95 µmol/kg in the experiment with saliva secretion; 0.708 µmol/kg in the experiment with guinea pig ileum; 0.631 µmol/kg in experiment [5]; 4.79 µmol/kg at M receptors of the heart [7]. The “Ratio saliva secretion inhibition” value in the experiment with guinea pig ileum was found to be 4. Also, the “Ratio influence of bradycardia” value in experiment [6] was found to be 8.

Regarding `Cc1scc2c1N(C(=O)N1CC3CN(C)CC3C1)c1ccccc1NC2=O` (centres unmarked) [D], the ED50 in experiment [4] is 1.58 µmol/kg; in experiment [5] it was 0.0891 µmol/kg; at M receptors of the heart [7] it was 0.741 µmol/kg. Moreover, in [6], the “Ratio influence of bradycardia” value is on record as 8.

As for `CN(C)CC1CCCCN1CC(=O)N1c2ccccc2C(=O)Nc2cccnc21` (centres unmarked) [X], the figures for the Kb in [1] and in experiment [3] were 105 nM and 617 nM, respectively. Besides, the “Selectivity KB heart to KB ileum” value in [2] came out at 0.17. Further, the median effective dose (ED50) in [4] is 11.7 µmol/kg; in [5], 2.63 µmol/kg; at M receptors of the heart [7], 1.45 µmol/kg. For the same molecule, the “Ratio influence of bradycardia” value in [6] was 0.5. Moreover, the “effectiveness on cardiac muscarine receptors” value with M receptors of the heart [8] is reported as “higher effectiveness on cardiac muscarine receptors”.

For the molecule `CN1CCN(CC(=O)N2c3ccccc3C(=O)Nc3cccnc32)CC1` [Y], the figures for the Kb in experiment [1] and in [3] were 123 nM and 194 nM, respectively. Also, the “Selectivity KB heart to KB ileum” value in experiment [2] is reported as 0.63. Also, the median effective dose (ED50) is 1.45 µmol/kg in experiment [4]; 0.38 µmol/kg with saliva secretion; 0.832 µmol/kg in the experiment on guinea pig ileum; 0.269 µmol/kg in experiment [5]; 1.26 µmol/kg on M receptors of the heart [7]. In the experiment on guinea pig ileum, the “Ratio saliva secretion inhibition” value is given as 0.5. Besides, the “Ratio influence of bradycardia” value in experiment [6] turned out to be 5. Also, in [6], the “selectivity for smooth muscle” value is reported as “no selectivity”.

On to `CN1[C@@H]2CC[C@H]1CC(OC(=O)C(CO)c1ccccc1)C2` (some centres unmarked) [Z], for which the ED50 in experiment [4] was 0.0525 µmol/kg; with guinea pig ileum, 0.0525 µmol/kg; in experiment [5], 0.00813 µmol/kg; at M receptors of the heart [7], 0.0269 µmol/kg.
